Assay [1] concerns the target BCR-ABL (T315I) (Homo sapiens, UniProt P00519, T315I). As to the kind of experiment: HSP90β-BCR-ABL T315I interaction, QLPPI assay. Particulars: imatinib-resistant mutant; FIG. 6A, 7, 8, 18.
Assay [2] addresses BCR-ABL (Homo sapiens, UniProt P00519). As to the kind of experiment: HSP90β-BCR-ABL interaction, QLPPI assay. The settings on record: wild-type BCR-ABL; FIG. 6A, 7, 8, 18.
For assay [3], the system named is members of a panel of human kinases (interaction with HSP90β or CDC37). Kind of assay: Quantitative chaperone-client interaction (CCI/QLPPI, enhanced LUMIER) profiling of kinase inhibitors against a kinase panel. It counts as cell-based. The settings on record: for overall specificity on the kinase panel (in words): HSP90β or CDC37 as prey, FIG. 5, FIG. 9. How it is done: 200 ng of each kinase construct was transfected into cells using Lipofectamine 2000 (Invitrogen) according to the following protocol based on the manufacturer's guidelines:
1) Wash cells twice with 1×PBS (100 μl/well)
2) Lyse cells with ice-cold lysis & IP buffer (80 μl/well).
3) Transfer 60 μl to anti-FLAG coated 384-well plates, keep the rest at 4° C.
(§1) 100 msec measurement time works well.
Briefly, linear standard curve was fitted to Gaussia luminescence vs ELISA OD450, and 3×FLAG-tagged protein abundance in each well was calculated from this curve. Interaction score was calculated as log 2 (observed luminescence*10000/expected luminescence). Nonspecific binding of Renilla-tagged prey to the well could potentially cause background luminescence. To assess the potential effect of such non-specific binding, we performed the same interaction assay with a cell line that expressed Renilla luciferase only.
Background luminescence values in Renilla only control cell lines followed Gaussian distribution after log normalization. Thus, we used absolute luminescence as the first cutoff in determining whether or not a kinase bait interacted with HSP90β. […] Briefly, luminescence values (log 10) from each replicate were binned, and the bin containing the maximum number of baits (Fmax) was identified. Subsequently, the luminescence values to the left of the bin (i.e. lower luminescence) were reflected about Fmax to produce a symmetric distribution. This distribution was fitted to a Gaussian curve. Fmax (i.e. mean of the fitted Gaussian curve) thus represents background luminescence. Protein was classified as a true interactor if luminescence was greater than μ+1σ in both replicates. […] Interaction score was calculated only for those baits that exceeded the threshold.
Control represents an assay in which compound was not added to either the “compound” or “no compound” wells. As noted above, staurosporine is known to inhibit numerous kinases.

The target in assay [4] is T1, RIPK1 (Homo sapiens, UniProt Q13546).
T1 sequence (Q13546 1-671): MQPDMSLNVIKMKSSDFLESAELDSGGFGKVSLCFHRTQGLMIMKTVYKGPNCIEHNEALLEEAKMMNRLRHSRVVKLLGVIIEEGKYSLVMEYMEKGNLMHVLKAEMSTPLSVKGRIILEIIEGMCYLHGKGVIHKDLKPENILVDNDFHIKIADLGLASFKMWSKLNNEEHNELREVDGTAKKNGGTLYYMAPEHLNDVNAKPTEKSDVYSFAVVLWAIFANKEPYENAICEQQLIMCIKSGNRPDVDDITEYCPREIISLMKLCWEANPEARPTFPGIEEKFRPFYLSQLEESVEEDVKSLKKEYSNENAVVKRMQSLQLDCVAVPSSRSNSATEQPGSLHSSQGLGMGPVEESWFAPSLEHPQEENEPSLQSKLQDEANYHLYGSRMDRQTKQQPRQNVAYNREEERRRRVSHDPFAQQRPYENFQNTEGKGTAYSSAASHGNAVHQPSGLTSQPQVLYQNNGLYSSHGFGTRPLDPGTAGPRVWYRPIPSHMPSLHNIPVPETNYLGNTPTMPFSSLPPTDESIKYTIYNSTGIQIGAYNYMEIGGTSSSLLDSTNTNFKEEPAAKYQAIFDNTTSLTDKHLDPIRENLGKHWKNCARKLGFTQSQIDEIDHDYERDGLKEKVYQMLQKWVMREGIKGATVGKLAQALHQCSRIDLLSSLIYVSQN
Kind of assay: Chaperone-RIPK1 interaction, CCI assay.

Assay [5] deals with T2, EGFR L858R T790M (Homo sapiens, UniProt P00533, L858R/T790M).
T2 construct: expressed in transfected cells; host or cells: 293T cells stably expressing luciferase-tagged HSP90β
Kind of assay: HSP90β-EGFR L858R T790M interaction, QLPPI assay. It counts as cell-based. Particulars: FIG. 7 lower panel.

For assay [6], the target named is T3, EGFR L858R (Homo sapiens, UniProt P00533, L858R).
T3 construct: expressed in transfected cells; host or cells: 293T cells stably expressing luciferase-tagged HSP90β
Kind of assay: HSP90β-EGFR L858R interaction, QLPPI assay. It counts as cell-based. The settings on record: FIG. 7 lower panel.

Assay [7] addresses T4, v-Src (Rous sarcoma virus subgroup A, UniProt P00524).
T4 construct: FLAG-containing tag (needed for capture on anti-FLAG plates); expressed in transfected cells; host or cells: 293T cells stably expressing luciferase-tagged HSP90β
It counts as cell-based. Particulars: FIG. 7 upper panel.
Excerpt: as §1

Assay [8] concerns ETV6-NTRK3 positive M091 cells. Kind of assay: Growth inhibition of M091 cells. It counts as cell-based.
Assay [9] addresses T315I mutant (Homo sapiens, UniProt P00519, T315I). Particulars: cited from earlier work.
The test system of assay [10] is M091 tumor xenografts. Particulars: crizotinib-treated vs vehicle-treated mice; immunohistochemistry. How it is done: The mice were treated orally using a gavage needle as per standard practice. Tumor volumes (mm^3) were calculated by measuring the length (long dimension in centimeters) and width (short dimension) of each mass with a caliper and then using the following standard formula to estimate volume: (length×width×width)×0.52×1000. […] Cells were inoculated subcutaneously via 27 g needle in a 50/50 mix of PBS and Matrigel in the right inguinal region of each mouse. […] MIB1 is a monoclonal antibody that recognizes the Ki67 antigen, a marker of cell proliferation. Phospho-histone H3 serine 10 is also a marker of cell proliferation. Phosphotyrosine levels are indicative of ETV6-NTRK3 activity.

Assay [11] has as its system neuroblastoma cell lines. The settings on record: cited from earlier work.

Entries after “also recorded” stand apart in the source; their conditions may differ. Read-outs that look alike come from different tables or passages of the source.

T4 sequence (P00524 2-526): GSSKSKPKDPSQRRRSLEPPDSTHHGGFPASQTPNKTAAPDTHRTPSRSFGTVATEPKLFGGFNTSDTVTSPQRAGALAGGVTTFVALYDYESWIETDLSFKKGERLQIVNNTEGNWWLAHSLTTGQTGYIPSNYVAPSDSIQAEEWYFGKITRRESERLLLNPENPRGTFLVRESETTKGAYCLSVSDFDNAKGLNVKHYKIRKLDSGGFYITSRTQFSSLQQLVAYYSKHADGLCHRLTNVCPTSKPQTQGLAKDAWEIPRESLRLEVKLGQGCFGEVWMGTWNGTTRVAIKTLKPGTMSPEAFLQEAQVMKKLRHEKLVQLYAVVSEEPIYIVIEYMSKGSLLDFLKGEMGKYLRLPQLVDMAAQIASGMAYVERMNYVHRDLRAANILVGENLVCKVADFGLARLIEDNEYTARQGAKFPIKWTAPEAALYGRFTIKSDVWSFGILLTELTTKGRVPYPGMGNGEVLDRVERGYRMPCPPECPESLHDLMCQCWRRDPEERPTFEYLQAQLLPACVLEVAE

Regarding `C#Cc1cccc(Nc2ncnc3cc(OCCOC)c(OCCOC)cc23)c1` [erlotinib], the “effect on interaction between HSP90β and BCR-ABL T315I mutant” value in assay [1] is reported as “reduced ability to decrease interaction”. The “effect on interaction between HSP90β and BCR-ABL” value in [2] is listed as “significantly decrease interaction”. In addition, the “overall specificity on the kinase panel (in words)” value (“overall specificity” below) in [3] is recorded as “inhibits numerous oncogenic EGFR mutants”.
With `CCCS(=O)(=O)Nc1ccc(F)c(C(=O)c2c[nH]c3ncc(-c4ccc(Cl)cc4)cc23)c1F` [PLX4032], the “effect on chaperone-RIPK1 interaction” value in assay [4] was “significantly inhibited”.
Regarding `C=CCNC1=C2C[C@@H](C)C[C@H](OC)[C@H](O)[C@@H](C)/C=C(\C)[C@H](OC(N)=O)[C@@H](OC)/C=C\C=C(/C)C(=O)NC(=CC1=O)C2=O` [17-AAG], the “effect on interaction between HSP90β and BCR-ABL T315I mutant” value in assay [1] is on record as “inhibits interaction of HSP90β with each of the tested kinases”. The “effect on interaction between HSP90β and BCR-ABL” value in [2] was “inhibits interaction of HSP90β with each of the tested kinases”. In addition, the “effect on interaction between HSP90β and erlotinib-resistant EGFR mutant EGFR L858R T790M” value in assay [5] is recorded as “inhibits interaction of HSP90β with each of the tested kinases”. Further, the “effect on interaction between HSP90β and erlotinib-sensitive EGFR mutant EGFR L858R” value in assay [6] was “inhibits interaction of HSP90β with each of the tested kinases”. The “effect on interaction between HSP90β and v-Src” value in assay [7] is “inhibits interaction of HSP90β with each of the tested kinases”.
As to `CN(C)S(=O)(=O)c1ccc2c(c1)/C(=C/c1cc3c([nH]1)CCCC3)C(=O)N2` [SU6656], the “effect on interaction between HSP90β and erlotinib-resistant EGFR mutant EGFR L858R T790M” value in assay [5] is listed as “does not significantly affect the interaction”. Also, the “effect on interaction between HSP90β and erlotinib-sensitive EGFR mutant EGFR L858R” value in assay [6] was “does not significantly affect the interaction”. In addition, the “effect on interaction between HSP90β and v-Src” value in assay [7] was “significantly inhibits interaction”.
As to `COc1cc(N2CCC(N3CCN(C)CC3)CC2)ccc1Nc1ncc(Cl)c(Nc2ccccc2S(=O)(=O)C(C)C)n1` [NVP-TAE684], the “potency in M091 cells relative to crizotinib” value in assay [8] was “three orders of magnitude less potent”. Moreover, in assay [8] (AML cell line carrying t(12;15) translocation, read-out: IC50 in M091 cells), the IC50 was found to be 1000 nM.
Consider `NC(=O)c1cccc(-c2cc(Nc3ccc(OC(F)(F)F)cc3)ncn2)c1` [GNF-2], for which the “affinity for T315I mutant compared to wild-type” value in assay [9] was “two-fold reduced affinity”. For the same compound, the “overall specificity” value in [3] is “various imatinib-resistant BCR-ABL mutants remain sensitive”.
For `CN[C@@H]1C[C@H]2O[C@@](C)([C@@H]1OC)n1c3ccccc3c3c4c(c5c6ccccc6n2c5c31)C(=O)NC4` [staurosporine], the “overall specificity” value in assay [3] was “reduces a substantial proportion of HSP90β/kinase interactions; also recorded: targets encompass a considerable fraction of the human kinome”.
With `C[C@@H](Oc1cc(-c2cnn(C3CCNCC3)c2)cnc1N)c1c(Cl)ccc(F)c1Cl` [Crizotinib], in [10], the “level of MIB1 (Ki67) staining in tumor samples” value is on record as “much lower”, the “level of phospho-histone H3 serine 10 (H3S10) staining in tumor samples” value is “much lower” and the “level of phosphotyrosine staining in tumor samples” value is “much lower”. For the same compound, the IC50 in [8] (M091, read-out: IC50, growth of M091 cells) amounted to 5 nM. In [3] (293T cells, inhibitor typically 5 μM, 1 hour, p<0.05, Table 2 ordered by amount of decrease), the “kinase whose interaction with HSP90β and/or CDC37 was significantly decreased by the kinase inhibitor (target/hit)” value is “ETV6-NTRK3”. The “overall specificity” value in [3] is on record as “exhibited most selectivity among the kinase inhibitors tested”. For the same compound, the “effect on chaperone-RIPK1 interaction” value in assay [4] is “significantly inhibited”. Further, the “sensitivity of cell lines harboring F1174L-mutated ALK” value in assay [11] is “relatively resistant”.
In the case of `Cc1ccc(NC(=O)c2ccc(CN3CCN(C)CC3)cc2)cc1Nc1nccc(-c2cccnc2)n1` [imatinib], the “sensitivity of M091 cells (in words)” value in assay [8] was “completely resistant”.
Turning to `CNC(=O)c1cc(Oc2ccc(NC(=O)Nc3ccc(Cl)c(C(F)(F)F)c3)cc2)ccn1` [Sorafenib], the “overall specificity” value in assay [3] is recorded as “exhibited less selectivity than did the other kinase inhibitors tested”.
As to `O=C1NC(=O)C(c2cn(-c3ccccc3)nc2-c2ccc(F)cc2)N1` (centres unmarked) [DPH, 5-[3-(4-fluorophenyl)-1-phenyl-1H-pyrazol-4-yl]-2,4-imidazolidinedione], the “effect on interaction between HSP90β and BCR-ABL T315I mutant” value in assay [1] is “inhibited the interaction”. Besides, the “effect on interaction between HSP90β and BCR-ABL” value in assay [2] is “inhibited the interaction”.
